Results as given in patent US6872805B2 (Bristol-Myers Squibb Company, priority 2000, dated 2005).

Target: HCV NS3/4A protease complex (Hepatitis C virus genotype 1a, UniProt P27958, C1454S/C1711G)
Experiment: Recombinant HCV NS3/4A protease complex FRET peptide assay (strain not stated)
Assay type: biochemical
Settings: IC50, NS3/4A protease enzyme assay, strain not stated; activity ranges
From the text: The purpose of this in vitro assay was to measure the inhibition of HCV NS3 protease complexes, derived from the BMS, H77C or J416S strains, as described below, by compounds of the present invention.
Serum from an HCV-infected patient was obtained from Dr. T. Wright, San Francisco Hospital. An engineered full-length cDNA template of the HCV genome (BMS strain) was constructed from DNA fragments obtained by reverse transcription-PCR (RT-PCR) of serum RNA and using primers selected on the basis of homology between other genotype 1a strains. […] The infectious clones, H77C (1a genotype) and J4L6S (1b genotype) were obtained from R. Purcell (NIH) and the sequences are published in genebank (AAB67036, see Yanagi, M., Purcell, R. H., Emerson, S. U. and Bukh, J. Proc. Natl. Acad. Sci. U.S.A. 94(16),8738-8743 (1997); AF054247, see Yanagi, M., St Claire, M., Shapiro, M., Emerson, S. U., Purcell, R. H. and Bukh, J, Virology 244 (1), 161-172. (1998)).
The BMS, H77C and J4L6S strains were used for production of recombinant NS3/4A protease complexes. DNA encoding the recombinant HCV NS3/4A protease complex (amino acid 1027 to 1711) for these strains were manipulated as described by P. Gallinari et al. (see Gallinari P, Paolini C, Brennan D, Nardi C, Steinkuhler C, De Francesco R. Biochemistry. 38(17):5620-32, (1999)). Briefly, a three-lysine solubilizing tail was added at the 3′-end of the NS4A coding region. The cysteine in the P1 position of the NS4A-NS4B cleavage site (amino acid 1711) was changed to a glycine to avoid the proteolytic cleavage of the lysine tag. Furthermore, a cysteine to serine mutation was introduced by PCR at amino acid position 1454 to prevent the autolytic cleavage in the NS3 helicase domain. The variant DNA fragment was cloned in the pET21b bacterial expression vector and the NS3/4A complex was expressed in E. coli BL21 (DE3) following the protocol described by P. Gallinari et al. (see Gallinari P, Brennan D, Nardi C, Brunetti M, Tomei L, Steinkuhler C, De Francesco R., J Virol. 72(8):6758-69 (1998)) with modifications. Briefly, NS3/4A expression was induced with 0.5 mM IPTG for 22 hr at 20° C. […] The cells were resuspended in lysis buffer (10 mL/g) consisting of 25 mM HEPES, pH 7.5, 20% glycerol, 500 mM NaCl, 0.5% Triton-X100, 1 ug/ml lysozyme, 5 mM MgCl2, 1 ug/ml DNaseI 5 mM β-Mercaptoethanol (βME), Protease inhibitor—EDTA free, homogenized and incubated for 20 mins at 4° C. The homogenate was sonicated and clarified by ultra-centrifugation at 235000 g for 1 hr at 4° C. Imidazole was added to the supernatant to a final concentration of 15 mM and the pH adjusted to 8.0. The crude protein extract was loaded on a Ni-NTA column pre-equilibrated with buffer B (25 mM HEPES, pH 8.0, 20% glycerol, 500 mM NaCl, 0.5% Triton-X100, 15 mM imidazole, 5 mM βME). The sample was loaded at a flow rate of 1 mL/min. The column was washed with 15 column volumes of buffer C (same as buffer B except with 0.2% Triton-X100). The protein was eluted with 5 column volumes of 200 mM Imidazole in buffer.
NS3/4A protease complex-containing fractions were pooled and loaded on a desalting column Superdex-S200 pre-equilibrated with buffer D (25 mM HEPES, pH 7.5, 20% glycerol, 300 mM NaCl, 0.2% Triton-X100, 10 mM βME). Sample was loaded at a flow rate of 1 mL/min. NS3/4A protease complex-containing fractions were pooled and concentrated to approximately 0.5 mg/ml.

Sequence of HCV NS3/4A protease complex (P27958 1027-1711, stated change not applied): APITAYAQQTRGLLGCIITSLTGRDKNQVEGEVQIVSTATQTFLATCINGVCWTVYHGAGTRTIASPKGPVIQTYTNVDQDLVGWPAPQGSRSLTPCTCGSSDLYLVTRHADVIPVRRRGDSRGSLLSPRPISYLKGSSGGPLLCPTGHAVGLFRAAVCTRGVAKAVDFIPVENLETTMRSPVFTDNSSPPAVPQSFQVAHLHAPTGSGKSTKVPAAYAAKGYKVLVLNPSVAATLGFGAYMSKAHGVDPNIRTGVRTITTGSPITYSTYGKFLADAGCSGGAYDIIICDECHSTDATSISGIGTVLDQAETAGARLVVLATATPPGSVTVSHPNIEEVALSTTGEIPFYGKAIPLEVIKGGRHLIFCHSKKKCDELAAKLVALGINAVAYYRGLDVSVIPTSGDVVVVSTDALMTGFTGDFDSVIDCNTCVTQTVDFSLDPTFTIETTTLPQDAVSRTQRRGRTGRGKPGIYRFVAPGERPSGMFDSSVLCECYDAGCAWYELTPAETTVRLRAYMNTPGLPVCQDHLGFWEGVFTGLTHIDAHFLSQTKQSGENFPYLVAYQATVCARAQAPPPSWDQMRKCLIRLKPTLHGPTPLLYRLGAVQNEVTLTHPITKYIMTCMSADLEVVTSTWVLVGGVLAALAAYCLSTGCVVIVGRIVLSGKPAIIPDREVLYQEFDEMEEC
Sequence of HCV NS3/4A protease complex (P27958 1027-1711, stated change not applied): as above

**Q.** `C=CC1CC1(NC(=O)[C@@H]1C[C@@H](Oc2cc(-c3ccccc3)nc3cc(OC)ccc23)CN1C(=O)[C@@H](NC(=O)OC(C)(C)C)C(C)C)C(=O)NS(=O)(=O)C(F)(F)F` (stereo partly shown) [Compound 85] was tested. Which IC50 did it give?
**A.** < 500 nM

**Q.** How did the IC50 turn out when `C=CC1CC1(NC(=O)[C@@H]1C[C@@H](Oc2cc(-c3ccccc3)nc3cc(OC)ccc23)CN1C(=O)[C@H](CC(C)C)NC(=O)OC(C)(C)C)C(=O)NS(C)(=O)=O` (stereo partly shown) [Compound 90] was run?
**A.** < 500 nM

**Q.** With `C=CC1CC1(NC(=O)[C@@H]1C[C@@H](Oc2cc(-c3ccccc3)nc3cc(OC)ccc23)CN1C(=O)[C@H](CC1CCCCC1)NC(=O)OC(C)(C)C)C(=O)NS(C)(=O)=O` (stereo partly shown) [Compound 76] as the compound, how does the IC50 read?
**A.** < 500 nM

**Q.** For `CCC1C[C@]1(NC(=O)[C@@H]1C[C@@H](Oc2cc(-c3ccccc3)nc3cc(OC)ccc23)CN1C(=O)[C@@H](NC(=O)OC(C)(C)C)C(C)C)C(=O)NS(C)(=O)=O` (stereo partly shown) [Compound 1], which IC50 is on record?
**A.** < 500 nM

**Q.** Which IC50 does the source give for `C=CC1CC1(NC(=O)OC(C)(C)C)C(=O)N1C[C@H](Oc2cc(-c3ccccc3)nc3cc(OC)ccc23)CC1C(=O)N[C@]1(C(=O)NS(=O)(=O)C2CC2)C[C@H]1C=C` (stereo partly drawn) [Compound 97, {1S-[2S-(1R-cyclopropanesulfonylamino-carbonyl-2S-vinylcyclopropylcarbamoyl)-4R-(7-methoxy-2-phenyl-quinolin-4-yloxy)-pyrrolidine-1-carbonyl]-2-vinyl-cyclopropyl}-carbamic acid tert-butyl ester] here?
**A.** < 500 nM

**Q.** For `CCC1CC1(NC(=O)[C@@H]1C[C@@H](Oc2cc(-c3ccccc3)nc3cc(OC)ccc23)CN1C(=O)[C@H](CC1CCCCC1)NC(=O)OC(C)(C)C)C(=O)NS(=O)(=O)C1CC1` (stereo partly shown) [Compound 78], which IC50 is on record?
**A.** < 50 nM

**Q.** How did the IC50 turn out when `COc1ccc2c(O[C@@H]3C[C@@H](C(=O)NC4(C(=O)NS(=O)(=O)C5CC5)CC45CCC5)N(C(=O)[C@@H](NC(=O)OC(C)(C)C)C(C)C)C3)cc(-c3ccccc3)nc2c1` (stereo partly shown) [Compound 138] was run?
**A.** < 5000 nM

**Q.** How did the IC50 turn out when `C=CC1C[C@]1(NC(=O)[C@@H]1C[C@@H](Oc2cc(-c3ccccc3)nc3cc(OC)ccc23)CN1C(=O)[C@@H](NC(=O)OC(C)(C)C)C(C)(C)C)C(=O)N[S+]([O-])C(C)(C)C` (stereo partly shown) [Compound 62] was run?
**A.** < 5000 nM

**Q.** For `C=CC1C[C@]1(NC(=O)[C@@H]1C[C@@H](Oc2cc(-c3ccccc3)nc3cc(OC)ccc23)CN1C(=O)C(NC(=O)OC(C)(C)C)C(C)(C)C)C(=O)NS(=O)(=O)c1c(C(C)C)cc(C(C)C)cc1C(C)C` (stereo partly shown) [Compound 64], which IC50 is on record?
**A.** < 5000 nM

**Q.** With `C=CC1CC1(NC(=O)[C@@H]1C[C@@H](Oc2cc(-c3ccccc3)nc3cc(OC)ccc23)CN1C(=O)[C@H](CC(C)C)NC(=O)OC(C)(C)C)C(=O)NS(=O)(=O)C1CC1` (stereo partly shown) [Compound 93] as the compound, how does the IC50 read?
**A.** < 50 nM

**Q.** Which IC50 does the source give for `C=CC1CC1(NC(=O)[C@@H]1C[C@@H](Oc2cc(-c3ccccc3)nc3cc(OC)ccc23)CN1C(=O)[C@H](CC1CCCCC1)NC(=O)OC(C)(C)C)C(=O)NS(=O)(=O)C1CC1` (stereo partly shown) [Compound 79] here?
**A.** < 500 nM

**Q.** For `CCC1CC1(NC(=O)[C@@H]1C[C@@H](Oc2cc(-c3ccccc3)nc3cc(OC)ccc23)CN1C(=O)[C@H](CC1CCCCC1)NC(=O)OC(C)(C)C)C(=O)NS(=O)(=O)C1CC1` (stereo partly shown) [Compound 77], which IC50 is on record?
**A.** < 50000 nM

**Q.** How did the IC50 turn out when `C=CC1CC1(NC(=O)[C@@H]1C[C@@H](Oc2cc(-c3ccccc3)nc3cc(OC)ccc23)CN1C(=O)[C@H](CC(C)C)NC(=O)OC(C)(C)C)C(=O)NS(=O)(=O)C(F)(F)F` (stereo partly shown) [Compound 84] was run?
**A.** < 5000 nM

**Q.** How did the IC50 turn out when `C=CC1CC1(NC(=O)[C@@H]1C[C@@H](Oc2cc(-c3ccccc3)nc3cc(OC)ccc23)CN1C(=O)[C@H](CC1CCCCC1)NC(=O)OC(C)(C)C)C(=O)NS(=O)(=O)C(F)(F)F` (stereo partly shown) [Compound 82] was run?
**A.** < 50000 nM

**Q.** With `CCC1CC1(NC(=O)[C@@H]1C[C@@H](Oc2cc(-c3ccccc3)nc3cc(OC)ccc23)CN1C(=O)[C@H](CC1CCCCC1)NC(=O)OC(C)(C)C)C(=O)NS(=O)(=O)C(F)(F)F` (stereo partly shown) [Compound 80] as the compound, how does the IC50 read?
**A.** < 5000 nM

**Q.** How did the IC50 turn out when `C=CC1C[C@]1(NC(=O)[C@@H]1C[C@@H](Oc2cc(-c3ccccc3)nc3cc(OC)ccc23)CN1C(=O)[C@@H](NC(=O)OC(C)(C)C)C(C)(C)C)C(=O)NS(=O)(=O)c1ccc(OC(F)(F)F)cc1` (stereo partly shown) [Compound 66] was run?
**A.** < 500 nM

**Q.** With `C=CC1CC1(NC(=O)[C@@H]1C[C@@H](Oc2cc(-c3ccccc3)nc3cc(OC)ccc23)CN1C(=O)[C@H](CC1CCCCC1)NC(=O)OC(C)(C)C)C(=O)NS(=O)(=O)C(F)(F)F` (stereo partly shown) [Compound 81] as the compound, how does the IC50 read?
**A.** < 5000 nM

**Q.** With `C=CC1C[C@]1(NC(=O)[C@@H]1C[C@@H](Oc2cc(-c3ccccc3)nc3cc(OC)ccc23)CN1C(=O)[C@@H](NC(=O)OC(C)(C)C)C(C)(C)C)C(=O)NS(=O)(=O)c1ccc(-c2ccccc2)cc1` (stereo partly shown) [Compound 65] as the compound, how does the IC50 read?
**A.** < 500 nM

**Q.** Which IC50 does the source give for `CCC1CC1(NC(=O)[C@@H]1C[C@@H](Oc2cc(-c3ccccc3)nc3cc(OC)ccc23)CN1C(=O)[C@H](CC1CCCCC1)NC(=O)OC(C)(C)C)C(=O)NS(C)(=O)=O` (stereo partly shown) [Compound 75] here?
**A.** < 500 nM

**Q.** `COc1ccc2c(OC3C[C@@H](C(=O)NC4(C(=O)NS(=O)(=O)C5CC5)CC45CCCC5)N(C(=O)[C@@H](NC(=O)OC(C)(C)C)C(C)(C)C)C3)cc(-c3ccccc3)nc2c1` (stereo partly shown) [Compound 139, {1-[2-(1-Cyclopropanesulfonylaminocarbonyl-spiro[2.4]hept-1-ylcarbamoyl)-4-(7-methoxy-2-phenyl-quinolin-4-yloxy)-pyrrolidine-1-carbonyl]-2,2-dimethyl-propyl}carbamic acid tert-butyl ester] was tested. Which IC50 did it give?
**A.** < 5000 nM

**Q.** Which IC50 does the source give for `C=CC1CC1(NC(=O)[C@@H]1C[C@@H](Oc2cc(-c3ccccc3)nc3cc(OC)ccc23)CN1C(=O)[C@@H](NC(=O)OC(C)(C)C)C(C)(C)C)C(=O)NS(C)(=O)=O` (stereo partly shown) [Compound 88] here?
**A.** < 500 nM

**Q.** How did the IC50 turn out when `C=CC1CC1(NC(=O)[C@@H]1C[C@@H](Oc2cc(-c3ccccc3)nc3cc(OC)ccc23)CN1C(=O)[C@@H](NC(=O)OC(C)(C)C)C(C)C)C(=O)NS(=O)(=O)C1CC1` (stereo partly shown) [Compound 92] was run?
**A.** < 50 nM

**Q.** `CCC1CC1(NC(=O)[C@@H]1C[C@@H](Oc2cc(-c3ccccc3)nc3cc(OC)ccc23)CN1C(=O)[C@H](CC1CCCCC1)NC(=O)OC(C)(C)C)C(=O)NS(C)(=O)=O` (stereo partly shown) [Compound 74] was tested. Which IC50 did it give?
**A.** < 5000 nM

Same assay, conditions: IC50, separated isomers of Compound 97; strain not stated

**Q.** How did the IC50 turn out when `C=CC1CC1(NC(=O)OC(C)(C)C)C(=O)N1C[C@H](Oc2cc(-c3ccccc3)nc3cc(OC)ccc23)CC1C(=O)N[C@]1(C(=O)NS(=O)(=O)C2CC2)C[C@H]1C=C` (stereo partly drawn) [lower RF isomer, {1S-[2S-(1R-cyclopropanesulfonylamino-carbonyl-2S-vinylcyclopropylcarbamoyl)-4R-(7-methoxy-2-phenyl-quinolin-4-yloxy)-pyrrolidine-1-carbonyl]-2-vinyl-cyclopropyl}-carbamic acid tert-butyl ester] was run?
**A.** 24 nM

**Q.** How did the IC50 turn out when `C=CC1CC1(NC(=O)OC(C)(C)C)C(=O)N1C[C@H](Oc2cc(-c3ccccc3)nc3cc(OC)ccc23)CC1C(=O)N[C@]1(C(=O)NS(=O)(=O)C2CC2)C[C@H]1C=C` (stereo partly drawn) [higher RF isomer, {1S-[2S-(1R-cyclopropanesulfonylamino-carbonyl-2S-vinylcyclopropylcarbamoyl)-4R-(7-methoxy-2-phenyl-quinolin-4-yloxy)-pyrrolidine-1-carbonyl]-2-vinyl-cyclopropyl}-carbamic acid tert-butyl ester] was run?
**A.** 250 nM
